Measured values from patent US9265748B2, “Anhydrous and hemihydrate crystalline forms of an (R)-baclofen prodrug, methods of synthesis and methods of use” (XenoPort, Inc., priority 2011, dated 2016).

Key:
[1] = test system: TLESRs; conditions: humans; cited from earlier work
[2] = test system: substance addiction; conditions: clinical trials: cocaine addiction, methamphetamine dependence, opioid dependence, alcohol craving and intake, nicotine use, drug addiction generally; cited from earlier work
[3] = Thermogravimetric analysis (TG-FTIR); format: physicochemical; conditions: for temperature at which thermal decomposition began slowly: TG-FTIR, 10 K/min, increased strongly above 190° C.
Method: Thermogravimetric measurements were carried out with a Netzsch Thermo-Microbalance TG 209 coupled to a Bruker FTIR Spectrometer Vector 22. The sample was contained in sample pans with a pinhole, under a N2 atmosphere. The heating rate was set at 10 K/min. […]

[4] = Dynamic vapor sorption (hygroscopicity, water content); format: physicochemical; conditions: for water content at 50% relative humidity / water content at 95% relative humidity: dynamic vapor sorption
From the text: In certain embodiments, crystalline (3R)-4-{[(1S)-2-methyl-1-(2-methylpropanoyloxyl)propoxy]carbonylamino}-3-(4-chlorophenyl)butanoic acid hemihydrate is hygroscopic. […] In certain embodiments, crystalline (3R)-4-{[(1S)-2-methyl-1-(2-methylpropanoyloxyl)propoxy]carbonylamino}-3-(4-chlorophenyl)butanoic acid hemihydrate comprises from about 2 wt %-about 3 wt % water. In certain embodiments, crystalline (3R)-4-{[(1S)-2-methyl-1-(2-methylpropanoyloxyl)propoxy]carbonylamino}-3-(4-chlorophenyl)butanoic acid hemihydrate contains about 2.15 wt % water at 50% relative humidity as measured by dynamic vapor sorption. In certain embodiments, crystalline (3R)-4-{[(1S)-2-methyl-1-(2-methylpropanoyloxyl)propoxy]carbonylamino}-3-(4-chlorophenyl)butanoic acid hemihydrate contains about 3 wt % water at 95% relative humidity as measured by dynamic vapor sorption.
In certain embodiments, crystalline (3R)-4-{[(1S)-2-methyl-1-(2-methylpropanoyloxyl)propoxy]carbonylamino}-3-(4-chlorophenyl)butanoic acid anhydrate contains less than about 0.05 wt % water at 50% relative humidity as measured by dynamic vapor sorption. In certain embodiments, crystalline (3R)-4-{[(1S)-2-methyl-1-(2-methylpropanoyloxyl)propoxy]carbonylamino}-3-(4-chlorophenyl)butanoic acid anhydrate contains less than about 0.1 wt % water at 95% relative humidity as measured by dynamic vapor sorption.

[5] = dosed either orally or directly into the colon of a mammal; cited from earlier work
[6] = test system: reflux episodes; conditions: clinical trials (Castell et al.); cited from earlier work
[7] = Solubility in crystallization solvents; format: physicochemical
From the text: As used herein, the terms solution and suspension are used interchangeably and are meant to include embodiments in which a compound is in a solvent or solvent mixture regardless of solubility. […] In general, solvent combinations in which a compound is soluble within a first temperature range, and poorly soluble within a second temperature range, can be used in the crystallization methods disclosed herein. Mixtures of a “good” solvent and an “anti-solvent” can also be used with temperature dependent solubilization, i.e., dissolving at elevated temperature and crystallizing at room temperature. Examples of suitable “good” solvents, i.e., solvents in which (3R)-4-{[(1S)-2-methyl-1-(2-methylpropanoyloxyl)propoxy]carbonylamino}-3-(4-chlorophenyl)butanoic acid is soluble, include methanol, ethanol, isopropanol, acetone, methyl isobutyl ketone, tetrahydrofuran, 2-methyl tetrahydrofuran, 1,4-dioxane, 1,2-ethandiol, 1,2-propanediol, 2-methoxyethanol, 2-ethoxyethanol, and a mixture of any of the foregoing.

[8] = test system: neuropathic pain; conditions: intrathecal; spinal-cord injury and multiple sclerosis, painful extremity paresthesias, sympathetically maintained pain; cited from earlier work
[9] = test system: allodynia and hyperalgesia; conditions: doses lower than those required to produce sedation and impairment of motor activity; cited from earlier work
[10] = test system: emesis induced by nicotine and motion; conditions: animal models (Chan et al.); cited from earlier work
[11] = test system: musculoskeletal pain; conditions: in vivo; cited from earlier work
[12] = test system: retching and vomiting induced by morphine; conditions: Suzuki et al.; cited from earlier work

## NC[C@H](CC(=O)O)c1ccc(Cl)cc1 [(R)-baclofen, (R)-4-amino-3-(4-chlorophenyl)butanoic acid]
[1]
  effect on TLESRs: reduce TLESRs
[2]
  efficacy in treating addiction: effective

## CC(C)C(=O)O[C@@H](OC(=O)NC[C@H](CC(=O)O)c1ccc(Cl)cc1)C(C)C [(3R)-4-{[(1S)-2-methyl-1-(2-methylpropanoyloxyl)propoxy]carbonylamino}-3-(4-chlorophenyl)butanoic acid anhydrate]
[3]
  temperature at which thermal decomposition began slowly: about 170 °C
[3]; scan rate 10 K/min, N2 atmosphere
  weight loss up to 180° C.: very little weight loss
[4]
  hygroscopicity: not hygroscopic
  water content at 50% relative humidity: less than 0.05 wt %
  water content at 95% relative humidity: less than 0.1 wt %

## CC(C)C(=O)O[C@@H](OC(=O)NC[C@H](CC(=O)O)c1ccc(Cl)cc1)C(C)C [Compound 1, (3R)-4-{[(1S)-2-methyl-1-(2-methylpropanoyloxyl)propoxy]carbonylamino}-3-(4-chlorophenyl)butanoic acid]
[5]
  bioavailability as R-baclofen: high bioavailability
[6]
  effect on reflux episodes: reduce reflux episodes
[7]; methanol, ethanol, isopropanol, acetone, methyl isobutyl ketone, tetrahydrofuran, 2-methyl tetrahydrofuran, 1,4-dioxane, 1,2-ethandiol, 1,2-propanediol, 2-methoxyethanol, 2-ethoxyethanol
  solubility in "good" solvents: soluble
[7]; water, diethyl ether, diisopropyl ether, methyl t-butyl ether, toluene, chlorobenzene, alkanes, cyclohexane, methylcyclohexane
  solubility in "anti-solvents": poor solubility

## (3R)-4-{[(1S)-2-methyl-1-(2-methylpropanoyloxyl)propoxy]carbonylamino}-3-(4-chlorophenyl)butanoic acid hemihydrate
[3]
  temperature at which thermal decomposition began slowly: about 170 °C
[3]; scan rate 10 K/min, N2 atmosphere, loss predominantly between 80° C. and 130° C., attributable to water
  weight loss up to 170° C.: about 2.1%
[4]
  hygroscopicity: hygroscopic
  water content at 50% relative humidity: about 2.15 wt %
  water content at 95% relative humidity: about 3 wt %
[4]; above about 60% relative humidity
  hygroscopicity above about 60% relative humidity: slightly hygroscopic

## NCC(CC(=O)O)c1ccc(Cl)cc1 (racemic) [baclofen, (±)-4-amino-3-(4-chlorophenyl)butanoic acid]
[8]
  efficacy in treating neuropathic pain: effective
[9]
  effect on allodynia and hyperalgesia: inhibits allodynia and hyperalgesia
[10]
  effect on emesis induced by nicotine and motion: antagonize emesis
[11]
  efficacy in treating migraine, tension-type headaches, low-back pain and radiculopathy: effective
[12]
  effect on retching and vomiting induced by morphine: suppress the retching and vomiting
